Results published in publication PMC3369139, “Preclinical evaluation of two ^68Ga-siderophores as potential radiopharmaceuticals for Aspergillus fumigatus infection imaging” (European Journal of Nuclear Medicine and Molecular Imaging, 2012).
Values joined by “and” are separate entries in the source; they are usually repeats but may differ in a detail not shown here. Equal values may be shown once.

Legend:
[1] = Log P of ^68Ga-siderophores; format: physicochemical; settings: determined as described previously [20]
Protocol: (§1) TAFC and FOXE were labelled with ^68Ga using acetate buffer at room temperature for 15 min (TAFC) and at 80 °C for 20 min (FOXE). For all in vitro and in vivo studies, the pH of the final product was adjusted with 1.1 M sodium acetate to pH 6–7. The radiochemical purity, log P, protein binding and stability of ^68Ga-siderophores in various media were determined, as described previously.

[2] = Protein binding in human serum; format: in vitro ADME
Protocol: as §1

Stability in human serum = format: in vitro ADME
Protocol: as §1

Stability in 0.1 M FeCl3 = format: physicochemical
Protocol: as §1

Stability in 6 mM DTPA = format: physicochemical
Protocol: as §1

[3] = system: A. fumigatus wild-type ATCC46645; experiment: In vitro uptake of ^68Ga-siderophores by A. fumigatus cultures; format: cell-based, Aspergillus fumigatus; settings: room temperature
Protocol: The Aspergillus strain used for in vitro studies was A. fumigatus wild-type ATCC46645 (American Type Culture Collection) cultured at 37 °C in Aspergillus minimal medium, containing 1 % glucose as the carbon source, 20 mM glutamine as the nitrogen source, salts and trace elements, as described previously. Iron-sufficient media contained […] FeSO4. For preparation of iron-deficient media, iron addition was omitted. Iron-deficient conditions were verified by detection of extracellular siderophore production, which is suppressed by iron.
Uptake by A. fumigatus in iron-deficient and iron-sufficient cultures was studied. For the monitoring of uptake over time, ^68Ga-siderophores (5 ng) were incubated in microbial media for 10, 20, 30, 45, 60 and 90 min at room temperature in 96-well plates (Millipore, Billerica, MA). For the monitoring of uptake blocking, excess of ferri-siderophore (Fe-TAFC or Fe-FOXE) and/or sodium azide was used. ^68Ga-siderophores were incubated in iron-deficient and iron-sufficient media for 45 min at room temperature in 96-well plates. The incubation was interrupted in both cases by filtration of the medium and rapid rinsing with ice-cold TRIS buffer. The filters were collected and counted in a γ-counter.

[4] = Biodistribution in normal Balb/c mice; format: in vivo; settings: normal noninfected Balb/c mice, i.v. tail vein
Protocol: Normal noninfected Balb/c mice (female, 6 weeks old) were injected with ^68Ga-siderophore (2 MBq and 0.1–0.2 μg of siderophore per mouse) into the tail vein. Animals were killed by cervical dislocation 30 min and 90 min after injection. The organs and tissues (blood, spleen, pancreas, stomach, intestines, kidneys, liver, heart, lungs, muscle and femur) were removed and radioactivity was counted in a γ-counter. The results are expressed as percentage of injected dose per gram of tissue.

[5] = Metabolic stability in normal Balb/c mice (RP-HPLC of urine, blood, liver and kidney homogenates); format: in vivo; settings: 30 min p.i., % intact on RP-HPLC
Protocol: Urine, blood, liver and kidneys of normal Balb/c mice injected with ^68Ga-siderophores and treated as described previously were collected 30 min after injection. The urine sample was directly injected onto the RP-HPLC column. Blood samples were precipitated with acetonitrile and centrifuged for 2 min, and the supernatant was injected onto the RP-HPLC column. Liver and kidneys were washed in the ice-cold TRIS buffer and liquidized using a mixer in a falcon tube containing 1 ml of TRIS buffer. The liver and kidney homogenates obtained were mixed with acetonitrile and centrifuged for 2 min, and the supernatant was injected onto the RP-HPLC column. In all cases 1 min fractions of the column eluate were collected and measured in a γ-counter. Samples were not collected at 90 min after injection because the measured activity was already low in the samples obtained 30 min after injection. All metabolic studies were performed using a previously described HPLC method.

A. fumigatus [6] = experiment: Ex vivo biodistribution in rat A. fumigatus infection model, standard; set-up: species or system Lewis rats
Protocol: (§2) The A. fumigatus (A29) isolate was grown on Sabouraud dextrose agar (BD) for 5 days at 37 °C, and the conidia were harvested in 2 ml of sterile NaCl by gently rubbing with a pipette tip. The conidia suspension was transferred into a sterile 50 ml plastic tube. After homogenization (vortex) and filtration (40 μm nylon cell strainer; BD), the suspension was counted in a Neubauer chamber and adjusted to the volitional concentration in the range 1 × 10^5 to 1 × 10^9 conidia per millilitre.
(§3) Female or male Lewis rats (2–3 months old), weighing 200–250 g, were treated as described previously. Briefly, the rats received repeated intraperitoneal injections of cyclophosphamide to induce neutropenia before A. fumigatus administration. To prevent bacterial superinfection, the animals were given antibiotics throughout the experiment. Fungal infection was established by intratracheal administration of 100–300 μl of A. fumigatus inoculum in various concentrations (1 × 10^5 to 1 × 10^9 conidia per millilitre). Animals were injected intravenously 1–3 days (depending on the severity of infection) after A. fumigatus administration with ^68Ga-labelled siderophore (10–20 MBq and 1–2 μg of siderophore per rat). The rats were imaged or killed by overdosing with thiopental (Sandoz, Kundl, Austria) 2 h after injection. Various organs and tissues (blood, spleen, kidneys, liver and lungs) were removed and radioactivity was measured in a γ-counter. The excised organs were investigated for the presence of fungi, as described below.
(§4) The excised organs were homogenized in a petri dish using a sterile surgical blade and transferred to Sabouraud dextrose agar (BD) plates. The plates were incubated at 37 °C and examined daily for 7 days. […] Severe infection was defined as the presence of severe fungal growth 1 day after incubation, mild infection was defined as the presence of minor growth up to 3 days after incubation, and no infection was defined as lack of growth within 1 week of incubation.

A. fumigatus [7] = experiment: Ex vivo biodistribution in rat A. fumigatus infection model, iron preload; set-up: species or system Lewis rats
Protocol: as §2, §3
Rats were treated as in the ‘standard’ infection model above, except that iron solution (FerMed; Medice, Iserlohn, Germany) 10 mg/kg was injected intraperitoneally three times (1 week, 4 days and 1 day) before A. fumigatus administration.
as §4

A. fumigatus [8] = experiment: PET imaging in rat A. fumigatus infection model; format: in vivo, Lewis rats; settings: infected rats, lungs, calculated from all PET imaging studies, mean ± sd, n=13
Protocol: as §3
PET images were acquired with an Inveon animal PET/CT scanner (Siemens Preclinical Solutions, Knoxville, TN) with an intrinsic spatial resolution of 1.5 mm. The animals were placed in a prone position. Static PET images were acquired over 30 min starting 30 min after intravenous injection of ^68Ga-siderophore. Dynamic PET imaging was started upon injection and continued up to 60 min after injection. In addition, combined PET/CT scans were performed for anatomical reference. PET emission scans were acquired for 30 min, preceded by CT scans (spatial resolution 113 μm, 80 kV, 500 μA, exposure time 300 ms). After imaging, animals were killed by CO2/O2. Scans were reconstructed using Inveon Acquisition Workplace software (version 1.5; Siemens Preclinical Solutions, Knoxville, TN) using a 3-D ordered subset expectation maximization/maximum a posteriori (OSEM3D/MAP) algorithm with the following parameters: matrix 256 × 256 × 159, pixel size 0.43 × 0.43 × 0.8 mm^3 and a MAP prior β-value of 1.5.

[9] = iron preload model, 2 h after injection

## CC(=O)NC1CCCN([O-])C(=O)C=C(C)CCOC(=O)C(NC(C)=O)CCCN([O-])C(=O)C=C(C)CCOC(=O)C(NC(C)=O)CCCN([O-])C(=O)C=C(C)CCOC1=O.[68Ga+3] (stereo not shown) [^68Ga-TAFC, triacetylfusarinine C]
[1]
  Log P: −2.59
[2]; incubation time 30 min
  Protein binding (%): 0.47%
[2]; incubation time 60 min
  Protein binding (%): 0.76%
[2]; incubation time 120 min
  Protein binding (%): 1.21%
Stability in human serum; incubation time 30 min
  Stability in human serum (%): 99.9%
Stability in human serum; incubation time 60 min
  Stability in human serum (%): 99.9%
Stability in human serum; incubation time 120 min
  Stability in human serum (%): 99.9%
Stability in 0.1 M FeCl3; incubation time 30 min
  Stability in 0.1-M FeCl3 (%): 99.4%
Stability in 0.1 M FeCl3; incubation time 60 min
  Stability in 0.1-M FeCl3 (%): 98.5%
Stability in 0.1 M FeCl3; incubation time 120 min
  Stability in 0.1-M FeCl3 (%): 99.3%
Stability in 6 mM DTPA; incubation time 30 min
  Stability in 6-mM DTPA (%): 85.0%
Stability in 6 mM DTPA; incubation time 60 min
  Stability in 6-mM DTPA (%): 84.7%
[3]; 5 ng ^68Ga-siderophore, 10-90 min, 96-well plates, filtration, γ-counter
  Uptake by A. fumigatus in iron-deficient cultures: rapid uptake
[3]; iron-deficient cultures, 45 min incubation
  Blocking of uptake with excess of ferri-siderophore and/or sodium azide: could be blocked
[4]; 30 min after injection
  Blood level: 1.6 ± 0.37 %ID/g
  Intestinal accumulation: 1.7 ± 1.04 %ID/g
[4]; 90 min after injection
  Intestinal accumulation: 1.0 ± 0.26 %ID/g
[5]
  Stability in kidney homogenate (%): 96.7%
  Stability in liver homogenate (%): 98.1%
[5]; γ-counter
  Stability in urine (%): 97.6%
[5]; acetonitrile precipitation
  Stability in blood (%): 98.7%
A. fumigatus [6]; 2 h after injection
  Lung/blood ratio, control (mean ± sd): 1.34 ± 0.22 (n=9)
  Lung/blood ratio, mild infection (mean ± sd): 3.82 ± 2.89 (n=3)
  Lung/blood ratio, severe infection (mean ± sd): 15.11 ± 11.37 (n=4)
  Lung/kidneys ratio, control (mean ± sd): 0.07 ± 0.03 (n=9)
  Lung/kidneys ratio, mild infection (mean ± sd): 0.16 ± 0.14 (n=3)
  Lung/kidneys ratio, severe infection (mean ± sd): 1.40 ± 0.76 (n=4)
  Lung/liver ratio, control (mean ± sd): 0.84 ± 0.48 (n=9)
  Lung/liver ratio, mild infection (mean ± sd): 4.81 ± 2.70 (n=3)
  Lung/liver ratio, severe infection (mean ± sd): 14.29 ± 6.10 (n=4)
A. fumigatus [6]; mildly infected rats, lungs ex vivo 2 h after injection, n in cell
  Mild infection (%ID/g - lungs) (mean ± sd): 0.29 ± 0.12 %ID/g and 0.29 ± 0.12 (n=3) %ID/g
A. fumigatus [6]; rats showing no infection, lungs ex vivo 2 h after injection, n in cell
  Control (%ID/g - lungs) (mean ± sd): 0.04 ± 0.01 %ID/g and 0.04 ± 0.01 (n=9) %ID/g
A. fumigatus [6]; severely infected rats, lungs ex vivo 2 h after injection, γ-counter, n in cell
  Severe infection (%ID/g - lungs) (mean ± sd): 0.95 ± 0.37 %ID/g and 0.95 ± 0.37 (n=4) %ID/g
A. fumigatus [7]; iron preload model (10 mg/kg i.p. three times), severely infected rats, lungs 2 h after injection, n in cell
  Severe infection (%ID/g - lungs): 0.64 (n=1) %ID/g
A. fumigatus [7]; [9]
  Lung/blood ratio, control: 0.99 (n=1)
  Lung/blood ratio, mild infection: 5.35 (n=2)
  Lung/blood ratio, severe infection: 1.41 (n=1)
  Lung/kidneys ratio, control: 0.08 (n=1)
  Lung/kidneys ratio, mild infection: 0.31 (n=2)
  Lung/kidneys ratio, severe infection: 0.07 (n=1)
  Lung/liver ratio, control: 0.76 (n=1)
  Lung/liver ratio, mild infection: 4.53 (n=2)
  Lung/liver ratio, severe infection: 3.49 (n=1)
A. fumigatus [7]; iron preload model, mildly infected rats, lungs 2 h after injection, n in cell
  Mild infection (%ID/g - lungs): 0.27 (n=2) %ID/g
A. fumigatus [7]; iron preload model, rats showing no infection, lungs 2 h after injection, n in cell
  Control (%ID/g - lungs): 0.04 (n=1) %ID/g
A. fumigatus [8]
  Target/non-target ratio: 5.81 ± 6.05 (n=13)
